SMILES strings stand for the structures. Where a name gives a salt, the structure may show the parent alone.

The target of the first experiment is IKZF2 (Helios) (Homo sapiens, UniProt Q96SW2+Q9UKS7). The experiment can be described thus: Prolabel quantification of IKZF2 protein levels in 293GT cells. The format is cell-based. The note with it: 24 h, Pro-label assay, 293GT cells, 10 μM, read-out: IKZF2 % protein reduction at 10 μM, 24 h.
Sequence of IKZF2 (Helios) (Q9UKS7 whole entry): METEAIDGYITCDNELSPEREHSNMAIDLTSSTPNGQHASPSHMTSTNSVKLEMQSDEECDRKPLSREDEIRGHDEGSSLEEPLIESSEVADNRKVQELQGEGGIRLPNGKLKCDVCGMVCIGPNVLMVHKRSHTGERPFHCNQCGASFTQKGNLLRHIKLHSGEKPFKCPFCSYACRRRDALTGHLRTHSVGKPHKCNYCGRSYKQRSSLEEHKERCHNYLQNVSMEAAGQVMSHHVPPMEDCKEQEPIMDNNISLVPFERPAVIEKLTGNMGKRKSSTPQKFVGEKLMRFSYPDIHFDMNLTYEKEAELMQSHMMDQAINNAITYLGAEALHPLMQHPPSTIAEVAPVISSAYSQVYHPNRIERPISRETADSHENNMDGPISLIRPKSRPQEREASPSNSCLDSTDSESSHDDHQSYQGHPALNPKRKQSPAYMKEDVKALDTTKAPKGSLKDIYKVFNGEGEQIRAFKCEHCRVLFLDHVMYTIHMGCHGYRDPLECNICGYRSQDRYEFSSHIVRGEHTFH
Sequence of IKZF2 (Helios) (Q96SW2 whole entry): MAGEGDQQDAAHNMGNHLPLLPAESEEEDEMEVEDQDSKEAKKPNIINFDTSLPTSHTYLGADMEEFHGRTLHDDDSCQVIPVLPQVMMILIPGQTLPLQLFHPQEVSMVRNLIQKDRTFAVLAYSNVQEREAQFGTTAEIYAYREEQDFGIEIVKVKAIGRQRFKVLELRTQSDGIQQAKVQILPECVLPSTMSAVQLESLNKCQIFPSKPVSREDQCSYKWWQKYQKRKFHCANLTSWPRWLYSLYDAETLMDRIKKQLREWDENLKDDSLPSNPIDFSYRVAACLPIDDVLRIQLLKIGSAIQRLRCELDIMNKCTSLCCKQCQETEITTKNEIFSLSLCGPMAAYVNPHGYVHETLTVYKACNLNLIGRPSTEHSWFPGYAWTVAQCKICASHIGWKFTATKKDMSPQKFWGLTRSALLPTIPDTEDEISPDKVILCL
Sequence of IKZF2 (Helios) (Q16531 whole entry partner): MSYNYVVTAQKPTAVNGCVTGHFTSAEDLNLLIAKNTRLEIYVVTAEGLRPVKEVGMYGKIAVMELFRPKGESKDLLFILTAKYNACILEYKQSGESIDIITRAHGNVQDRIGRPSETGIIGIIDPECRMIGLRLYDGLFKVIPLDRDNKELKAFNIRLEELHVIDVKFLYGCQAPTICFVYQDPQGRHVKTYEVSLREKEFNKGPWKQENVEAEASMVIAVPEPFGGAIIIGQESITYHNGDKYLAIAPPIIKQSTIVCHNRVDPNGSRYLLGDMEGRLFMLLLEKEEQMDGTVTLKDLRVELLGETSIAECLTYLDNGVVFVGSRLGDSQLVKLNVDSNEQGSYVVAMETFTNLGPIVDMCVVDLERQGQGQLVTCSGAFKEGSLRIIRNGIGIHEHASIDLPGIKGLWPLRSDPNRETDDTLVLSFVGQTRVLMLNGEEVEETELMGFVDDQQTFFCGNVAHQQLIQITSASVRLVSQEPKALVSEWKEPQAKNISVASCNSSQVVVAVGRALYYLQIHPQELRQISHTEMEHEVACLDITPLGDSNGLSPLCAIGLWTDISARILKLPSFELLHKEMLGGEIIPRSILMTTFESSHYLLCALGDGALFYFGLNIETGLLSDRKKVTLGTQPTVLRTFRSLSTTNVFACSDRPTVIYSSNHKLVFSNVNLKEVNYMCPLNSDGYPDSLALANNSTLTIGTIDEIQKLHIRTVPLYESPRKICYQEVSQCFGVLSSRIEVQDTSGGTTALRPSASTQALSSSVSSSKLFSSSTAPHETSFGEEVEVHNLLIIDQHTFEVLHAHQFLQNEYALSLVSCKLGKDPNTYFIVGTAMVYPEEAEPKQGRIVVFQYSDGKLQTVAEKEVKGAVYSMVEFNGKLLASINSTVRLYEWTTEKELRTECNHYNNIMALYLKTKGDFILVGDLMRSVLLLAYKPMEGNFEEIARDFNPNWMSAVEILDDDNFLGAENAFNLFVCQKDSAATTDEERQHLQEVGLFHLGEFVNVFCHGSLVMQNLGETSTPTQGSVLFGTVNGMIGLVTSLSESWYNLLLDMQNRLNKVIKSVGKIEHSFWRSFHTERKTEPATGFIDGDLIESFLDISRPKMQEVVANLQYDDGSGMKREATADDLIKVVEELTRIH
Consider `COC1CN([C@H]2CCC[C@@H]2Oc2ccc3c(c2)CN(C2CCC(=O)NC2=O)C3=O)C1` (stereo partly drawn) [I-157, 3-(5-(((1S,2S)-2-(3-methoxyazetidin-1-yl)cyclopentyl)oxy)-1-oxoisoindolin-2-yl)piperidine-2,6-dione], for which the IKZF2 % protein reduction at 10 µM was 61%.

`O=C1CCC(N2Cc3cc(O[C@H]4CCC[C@@H]4NCC4CCC(F)(F)CC4)ccc3C2=O)C(=O)N1` (stereo partly drawn) [I-173, 3-(5-(((1S,2S)-2-(((4,4-difluorocyclohexyl)methyl)amino)cyclopentyl)oxy)-1-oxoisoindolin-2-yl)piperidine-2,6-dione]: the IKZF2 % protein reduction at 10 µM was determined as 84%.

As for `CCN[C@H]1CCC[C@@H]1Oc1ccc2c(c1)CN(C1CCC(=O)NC1=O)C2=O` (stereo partly drawn) [I-29, 3-(5-(((1S,2S)-2-(ethylamino)cyclopentyl)oxy)-1-oxoisoindolin-2-yl)piperidine-2,6-dione], the IKZF2 % protein reduction at 10 µM amounted to 80%.

Consider `O=C1CCC(N2Cc3cc(O[C@H]4CCC[C@@H]4N4Cc5ccccc5C4)ccc3C2=O)C(=O)N1` (stereo partly drawn) [I-156, 3-(5-(((1S,2S)-2-(isoindolin-2-yl)cyclopentyl)oxy)-1-oxoisoindolin-2-yl)piperidine-2,6-dione], for which the IKZF2 % protein reduction at 10 µM was 70%.

For `CC1(C#N)CC(CN[C@H]2CCCC[C@@H]2Oc2ccc3c(c2)CN(C2CCC(=O)NC2=O)C3=O)C1` (single isomer, unassigned) [I-94], the IKZF2 % protein reduction at 10 µM worked out at 84%.

Turning to `O=C1CCC(N2Cc3cc(O[C@H]4CCC[C@@H]4N4CCCOCC4)ccc3C2=O)C(=O)N1` (stereo in doubt) [I-185, 3-(5-(((1S,2S)-2-(1,4-oxazepan-4-yl)cyclopentyl)oxy)-1-oxoisoindolin-2-yl)piperidine-2,6-dione], the IKZF2 % protein reduction at 10 µM was found to be 66%.

Regarding `O=C1CCC(N2Cc3cc(O[C@H]4CCCC[C@@H]4NCc4ccc(F)cc4F)ccc3C2=O)C(=O)N1` (stereo partly drawn) [I-116, 3-(5-(((1S,2S)-2-((2,4-difluorobenzyl)amino)cyclohexyl)oxy)-1-oxoisoindolin-2-yl)piperidine-2,6-dione], the IKZF2 % protein reduction at 10 µM was 65%.

Turning to `O=C1CCC(N2Cc3cc(OC4CCCCC4N4CCC(F)(F)C4)ccc3C2=O)C(=O)N1` (single isomer, unassigned) [I-134, 3-(5-((2-(3,3-difluoropyrrolidin-1-yl)cyclohexyl)oxy)-1-oxoisoindolin-2-yl)piperidine-2,6-dione], the IKZF2 % protein reduction at 10 µM is 56%.

Consider `CCN(C)[C@H]1CCCC[C@@H]1Oc1ccc2c(c1)CN(C1CCC(=O)NC1=O)C2=O` (stereo partly drawn) [I-78, 3-(5-(((1S,2S)-2-(ethyl(methyl)amino)cyclohexyl)oxy)-1-oxoisoindolin-2-yl)piperidine-2,6-dione], for which the IKZF2 % protein reduction at 10 µM is 50%.

Regarding `COc1ccccc1OC1CN([C@H]2CCC[C@@H]2Oc2ccc3c(c2)CN(C2CCC(=O)NC2=O)C3=O)C1` (stereo partly drawn) [I-178, 3-(5-(((1S,2S)-2-(3-(2-methoxyphenoxy)azetidin-1-yl)cyclopentyl)oxy)-1-oxoisoindolin-2-yl)piperidine-2,6-dione], the IKZF2 % protein reduction at 10 µM amounted to 92%.

Take `O=C1CCC(N2Cc3cc(O[C@H]4CCCC[C@@H]4NCc4cnc5ccnn5c4)ccc3C2=O)C(=O)N1` (stereo partly drawn) [I-114, 3-(1-oxo-5-(((1S,2S)-2-((pyrazolo[1,5-a]pyrimidin-6-ylmethyl)amino)cyclohexyl)oxy)isoindolin-2-yl)piperidine-2,6-dione]: the IKZF2 % protein reduction at 10 µM turned out to be 54%.

For `O=C1CCC(N2Cc3cc(O[C@H]4CCCC[C@H]4NCc4ccccc4)ccc3C2=O)C(=O)N1` (stereo partly drawn) [I-2, 3-(5-(((1S,2R)-2-(benzylamino)cyclohexyl)oxy)-1-oxoisoindolin-2-yl)piperidine-2,6-dione], the IKZF2 % protein reduction at 10 µM came to 10%.

For the compound `CCOC1CN([C@H]2CCCC[C@@H]2Oc2ccc3c(c2)CN(C2CCC(=O)NC2=O)C3=O)C1` (stereo partly drawn) [I-48, 3-(5-(((1S,2S)-2-(3-ethoxyazetidin-1-yl)cyclohexyl)oxy)-1-oxoisoindolin-2-yl)piperidine-2,6-dione], the IKZF2 % protein reduction at 10 µM is 89%.

With `O=C1CCC(N2Cc3cc(O[C@H]4CCCC[C@@H]4NC4CCC(F)(F)CC4)ccc3C2=O)C(=O)N1` (stereo partly drawn) [I-115, 3-(5-(((1S,2S)-2-((4,4-difluorocyclohexyl)amino)cyclohexyl)oxy)-1-oxoisoindolin-2-yl)piperidine-2,6-dione], the IKZF2 % protein reduction at 10 µM was determined as 90%.

On to `O=C1CCC(N2Cc3cc(O[C@H]4CCCC[C@@H]4NCc4ccccn4)ccc3C2=O)C(=O)N1` (stereo partly drawn) [I-85, 3-(1-oxo-5-(((1S,2S)-2-((pyridin-2-ylmethyl)amino)cyclohexyl)oxy)isoindolin-2-yl)piperidine-2,6-dione], for which the IKZF2 % protein reduction at 10 µM was found to be 69%.

As to `CC(C)N[C@H]1CCCC[C@@H]1Oc1ccc2c(c1)CN(C1CCC(=O)NC1=O)C2=O` (stereo partly drawn) [I-131, 3-(5-(((1S,2S)-2-(isopropylamino)cyclohexyl)oxy)-1-oxoisoindolin-2-yl)piperidine-2,6-dione], the IKZF2 % protein reduction at 10 µM is 91%.

Regarding `O=C1CCC(N2Cc3cc(O[C@H]4CCCC[C@@H]4NCCO)ccc3C2=O)C(=O)N1` (stereo partly drawn) [I-82, 3-(5-(((1S,2S)-2-((2-hydroxyethyl)amino)cyclohexyl)oxy)-1-oxoisoindolin-2-yl)piperidine-2,6-dione], the IKZF2 % protein reduction at 10 µM stood at 58%.

For `CO[C@H]1CC[C@H](CN[C@H]2CCCCC[C@@H]2Oc2ccc3c(c2)CN(C2CCC(=O)NC2=O)C3=O)CC1` (stereo partly drawn) [I-64, 3-(5-(((1S,2S)-2-((((1r,4S)-4-methoxycyclohexyl)methyl)amino)cycloheptyl)oxy)-1-oxoisoindolin-2-yl)piperidine-2,6-dione], the IKZF2 % protein reduction at 10 µM was 84%.

As for `CCN(CC1COC1)[C@H]1CCC[C@@H]1Oc1ccc2c(c1)CN(C1CCC(=O)NC1=O)C2=O` (stereo partly drawn) [I-155, 3-(5-(((1S,2S)-2-(ethyl(oxetan-3-ylmethyl)amino)cyclopentyl)oxy)-1-oxoisoindolin-2-yl)piperidine-2,6-dione], the IKZF2 % protein reduction at 10 µM was 65%.

In the case of `O=C1CCC(N2Cc3cc(O[C@H]4CCCC[C@@H]4N4CCCC4)ccc3C2=O)C(=O)N1` (stereo partly drawn) [I-83, 3-(1-oxo-5-(((1S,2S)-2-(pyrrolidin-1-yl)cyclohexyl)oxy)isoindolin-2-yl)piperidine-2,6-dione], the IKZF2 % protein reduction at 10 µM is 86%.

In the case of `CCN[C@H]1CCCC[C@@H]1Oc1ccc2c(c1)CN(C1CCC(=O)NC1=O)C2=O` (stereo partly drawn) [I-79, 3-(5-(((1S,2S)-2-(ethylamino)cyclohexyl)oxy)-1-oxoisoindolin-2-yl)piperidine-2,6-dione], the IKZF2 % protein reduction at 10 µM is 85%.

On to `O=C1CCC(N2Cc3cc(O[C@H]4CCC[C@@H]4N4CCCC4)ccc3C2=O)C(=O)N1` (stereo partly drawn) [I-146, 3-(1-oxo-5-(((1S,2S)-2-(pyrrolidin-1-yl)cyclopentyl)oxy)isoindolin-2-yl)piperidine-2,6-dione], for which the IKZF2 % protein reduction at 10 µM was found to be 83%.

As for `CC1(CN[C@H]2CCCC[C@@H]2Oc2ccc3c(c2)CN(C2CCC(=O)NC2=O)C3=O)COC1` (stereo partly drawn) [I-87, 3-(5-(((1S,2S)-2-(((3-methyloxetan-3-yl)methyl)amino)cyclohexyl)oxy)-1-oxoisoindolin-2-yl)piperidine-2,6-dione], the IKZF2 % protein reduction at 10 µM was 79%.

Take `O=C1CCC(N2Cc3cc(O[C@H]4CC[C@@H]4NCc4ccccc4)ccc3C2=O)C(=O)N1` (single isomer, unassigned) [I-44]: the IKZF2 % protein reduction at 10 µM stood at 42%.

With `CCN(CC)[C@H]1CCC[C@@H]1Oc1ccc2c(c1F)CN(C1CCC(=O)NC1=O)C2=O` (stereo partly drawn) [I-214, 3-(5-(((1S,2S)-2-(diethylamino)cyclopentyl)oxy)-4-fluoro-1-oxoisoindolin-2-yl)piperidine-2,6-dione], the IKZF2 % protein reduction at 10 µM stood at 40%.

With `COC1CCC(CN[C@H]2CCCC[C@@H]2Oc2ccc3c(c2)CN(C2CCC(=O)NC2=O)C3=O)CC1` (stereo partly drawn) [I-123, 3-(5-(((1S,2S)-2-(((4-methoxycyclohexyl)methyl)amino)cyclohexyl)oxy)-1-oxoisoindolin-2-yl)piperidine-2,6-dione], the IKZF2 % protein reduction at 10 µM turned out to be 82%.

Take `COC1(C)CCN([C@H]2CCC[C@@H]2Oc2ccc3c(c2)CN(C2CCC(=O)NC2=O)C3=O)CC1` (stereo partly drawn) [I-152, 3-(5-(((1S,2S)-2-(4-methoxy-4-methylpiperidin-1-yl)cyclopentyl)oxy)-1-oxoisoindolin-2-yl)piperidine-2,6-dione]: the IKZF2 % protein reduction at 10 µM was 82%.

Regarding `O=C1CCC(N2Cc3cc(O[C@H]4CCCC[C@@H]4NCCC4CCOCC4)ccc3C2=O)C(=O)N1` (stereo partly drawn) [I-104, 3-(1-oxo-5-(((1S,2S)-2-((2-(tetrahydro-2H-pyran-4-yl)ethyl)amino)cyclohexyl)oxy)isoindolin-2-yl)piperidine-2,6-dione], the IKZF2 % protein reduction at 10 µM amounted to 87%.

For `O=C1CCC(N2Cc3cc(O[C@H]4CCCC[C@@H]4NCc4ccncc4)ccc3C2=O)C(=O)N1` (stereo partly drawn) [I-73, 3-(1-oxo-5-(((1S,2S)-2-((pyridin-4-ylmethyl)amino)cyclohexyl)oxy)isoindolin-2-yl)piperidine-2,6-dione], the IKZF2 % protein reduction at 10 µM was 66%.

The experiment is the same for the next values; noted with them: 24 h, read-out: IKZF2 % protein reduction at 10 μM, 24 h.
Take `N[C@H]1c2ccccc2C[C@@H]1Oc1ccc2c(c1)CN(C1CCC(=O)NC1=O)C2=O` (stereo partly drawn) [I-197, 3-(5-(((1S,2S)-1-amino-2,3-dihydro-1H-inden-2-yl)oxy)-1-oxoisoindolin-2-yl)piperidine-2,6-dione]: the IKZF2 % protein reduction at 10 µM worked out at 68%.

For the compound `N[C@@H]1CCC[C@@H]1Oc1ccc2c(c1)CN(C1CCC(=O)NC1=O)C2=O` (stereo partly drawn) [I-28, 3-(5-(((1S,2R)-2-aminocyclopentyl)oxy)-1-oxoisoindolin-2-yl)piperidine-2,6-dione hydrochloride], the IKZF2 % protein reduction at 10 µM was 0%.

Turning to `O=C1CCC(N2Cc3cc(O[C@H]4CCCCC[C@@H]4NCc4ccccc4)ccc3C2=O)C(=O)N1` (stereo partly drawn) [I-58, 3-(5-(((1S,2S)-2-(benzylamino)cycloheptyl)oxy)-1-oxoisoindolin-2-yl)piperidine-2,6-dione], the IKZF2 % protein reduction at 10 µM is 75%.

Turning to `CCN(CC)[C@H]1c2ccccc2C[C@@H]1Oc1ccc2c(c1)CN(C1CCC(=O)NC1=O)C2=O` (stereo partly drawn) [I-199, 3-(5-(((1S,2S)-1-(diethylamino)-2,3-dihydro-1H-inden-2-yl)oxy)-1-oxoisoindolin-2-yl)piperidine-2,6-dione], the IKZF2 % protein reduction at 10 µM was determined as 71%.

Values taken from patent publication US11192877B2, “3-(5-hydroxy-1-oxoisoindolin-2-yl)piperidine-2,6-dione derivatives and uses thereof” (Novartis AG, priority 2018, dated 2021).
